# Data as given in PubChem BioAssay AID1259407 (Chemical Carcinogenesis Research Information System (CCRIS), 2018).
# Calls of active or inactive are those of the source. How the calls were made is not given here.
# System: CCRIS mutagenicity, Ames/micronucleus/aberration tests
# Test: CCRIS mutagenicity studies
# [1] = Test System: AMES SALMONELLA TYPHIMURIUM, Strain/Indicator: TA98, Metabolic Activation: NONE, Method: PREINCUBATION
# [2] = Test System: AMES SALMONELLA TYPHIMURIUM, Strain/Indicator: TA98, Metabolic Activation: NONE, Method: STANDARD PLATE
# [3] = Test System: AMES SALMONELLA TYPHIMURIUM, Strain/Indicator: TA100, Metabolic Activation: HAMSTER, LIVER, S-9, AROCLOR 1254 (30%), Method: PREINCUBATION
# [4] = Test System: AMES SALMONELLA TYPHIMURIUM, Strain/Indicator: TA100, Metabolic Activation: NONE, Method: PREINCUBATION
# [5] = Test System: AMES SALMONELLA TYPHIMURIUM, Strain/Indicator: TA100, Metabolic Activation: NONE, Method: STANDARD PLATE
# [6] = Test System: AMES SALMONELLA TYPHIMURIUM, Strain/Indicator: TA100, Metabolic Activation: RAT, LIVER, S-9, AROCLOR 1254 (30%), Method: PREINCUBATION
# [7] = Test System: AMES SALMONELLA TYPHIMURIUM, Strain/Indicator: TA100, Metabolic Activation: RAT, LIVER, S-9, AROCLOR 1254, Method: STANDARD PLATE
# [8] = Test System: AMES SALMONELLA TYPHIMURIUM, Strain/Indicator: TA1535, Metabolic Activation: NONE, Method: PREINCUBATION
# [9] = Test System: AMES SALMONELLA TYPHIMURIUM, Strain/Indicator: TA1537, Metabolic Activation: NONE, Method: PREINCUBATION
structure (smiles),measurement,setting,value
Cc1cc(O)ccc1Cl,mutagenic call,"Test System: AMES SALMONELLA TYPHIMURIUM, Strain/Indicator: TA97, Metabolic Activation: HAMSTER, LIVER, S-9, AROCLOR 1254 (10%), Method: PREINCUBATION",inactive; negative
same,mutagenic call,"Test System: AMES SALMONELLA TYPHIMURIUM, Strain/Indicator: TA97, Metabolic Activation: HAMSTER, LIVER, S-9, AROCLOR 1254 (30%), Method: PREINCUBATION",inactive; negative
same,mutagenic call,"Test System: AMES SALMONELLA TYPHIMURIUM, Strain/Indicator: TA97, Metabolic Activation: NONE, Method: PREINCUBATION",inactive; negative
same,mutagenic call,"Test System: AMES SALMONELLA TYPHIMURIUM, Strain/Indicator: TA97, Metabolic Activation: NONE, Method: STANDARD PLATE",inactive; negative
same,mutagenic call,"Test System: AMES SALMONELLA TYPHIMURIUM, Strain/Indicator: TA97, Metabolic Activation: RAT, LIVER, S-9, AROCLOR 1254 (10%), Method: PREINCUBATION",inactive; negative
same,mutagenic call,"Test System: AMES SALMONELLA TYPHIMURIUM, Strain/Indicator: TA97, Metabolic Activation: RAT, LIVER, S-9, AROCLOR 1254 (30%), Method: PREINCUBATION",inactive; negative
same,mutagenic call,"Test System: AMES SALMONELLA TYPHIMURIUM, Strain/Indicator: TA97, Metabolic Activation: RAT, LIVER, S-9, AROCLOR 1254, Method: STANDARD PLATE",active; positive
same,mutagenic call,"Test System: AMES SALMONELLA TYPHIMURIUM, Strain/Indicator: TA98, Metabolic Activation: HAMSTER, LIVER, S-9, AROCLOR 1254 (10%), Method: PREINCUBATION",inactive; negative
same,mutagenic call,"Test System: AMES SALMONELLA TYPHIMURIUM, Strain/Indicator: TA98, Metabolic Activation: HAMSTER, LIVER, S-9, AROCLOR 1254 (30%), Method: PREINCUBATION",inactive; negative
same,mutagenic call,[1],inactive; negative
same,mutagenic call,[2],inactive; negative
same,mutagenic call,"Test System: AMES SALMONELLA TYPHIMURIUM, Strain/Indicator: TA98, Metabolic Activation: RAT, LIVER, S-9, AROCLOR 1254 (10%), Method: PREINCUBATION",inactive; negative
same,mutagenic call,"Test System: AMES SALMONELLA TYPHIMURIUM, Strain/Indicator: TA98, Metabolic Activation: RAT, LIVER, S-9, AROCLOR 1254 (30%), Method: PREINCUBATION",inactive; negative
same,mutagenic call,"Test System: AMES SALMONELLA TYPHIMURIUM, Strain/Indicator: TA98, Metabolic Activation: RAT, LIVER, S-9, AROCLOR 1254, Method: STANDARD PLATE",inactive; negative
same,mutagenic call,"Test System: AMES SALMONELLA TYPHIMURIUM, Strain/Indicator: TA100, Metabolic Activation: HAMSTER, LIVER, S-9, AROCLOR 1254 (10%), Method: PREINCUBATION",inactive; negative
same,mutagenic call,[3],inactive; negative
same,mutagenic call,[4],inactive; negative
same,mutagenic call,[5],inactive; negative
same,mutagenic call,"Test System: AMES SALMONELLA TYPHIMURIUM, Strain/Indicator: TA100, Metabolic Activation: RAT, LIVER, S-9, AROCLOR 1254 (10%), Method: PREINCUBATION",inactive; negative
same,mutagenic call,[6],inactive; negative
same,mutagenic call,[7],inactive; negative
same,mutagenic call,"Test System: AMES SALMONELLA TYPHIMURIUM, Strain/Indicator: TA104, Metabolic Activation: NONE, Method: STANDARD PLATE",inactive; negative
same,mutagenic call,"Test System: AMES SALMONELLA TYPHIMURIUM, Strain/Indicator: TA104, Metabolic Activation: RAT, LIVER, S-9, AROCLOR 1254, Method: STANDARD PLATE",inactive; negative
same,mutagenic call,"Test System: AMES SALMONELLA TYPHIMURIUM, Strain/Indicator: TA1535, Metabolic Activation: HAMSTER, LIVER, S-9, AROCLOR 1254 (10%), Method: PREINCUBATION",inactive; negative
same,mutagenic call,"Test System: AMES SALMONELLA TYPHIMURIUM, Strain/Indicator: TA1535, Metabolic Activation: HAMSTER, LIVER, S-9, AROCLOR 1254 (30%), Method: PREINCUBATION",inactive; negative
same,mutagenic call,[8],inactive; negative
same,mutagenic call,"Test System: AMES SALMONELLA TYPHIMURIUM, Strain/Indicator: TA1535, Metabolic Activation: NONE, Method: STANDARD PLATE",inactive; negative
same,mutagenic call,"Test System: AMES SALMONELLA TYPHIMURIUM, Strain/Indicator: TA1535, Metabolic Activation: RAT, LIVER, S-9, AROCLOR 1254 (10%), Method: PREINCUBATION",inactive; negative
same,mutagenic call,"Test System: AMES SALMONELLA TYPHIMURIUM, Strain/Indicator: TA1535, Metabolic Activation: RAT, LIVER, S-9, AROCLOR 1254 (30%), Method: PREINCUBATION",inactive; negative
same,mutagenic call,"Test System: AMES SALMONELLA TYPHIMURIUM, Strain/Indicator: TA1535, Metabolic Activation: RAT, LIVER, S-9, AROCLOR 1254, Method: STANDARD PLATE",inactive; negative
same,mutagenic call,"Test System: AMES SALMONELLA TYPHIMURIUM, Strain/Indicator: TA1537, Metabolic Activation: HAMSTER, LIVER, S-9, AROCLOR 1254 (30%), Method: PREINCUBATION",inactive; negative
same,mutagenic call,[9],inactive; negative
same,mutagenic call,"Test System: AMES SALMONELLA TYPHIMURIUM, Strain/Indicator: TA1537, Metabolic Activation: NONE, Method: STANDARD PLATE",inactive; negative
same,mutagenic call,"Test System: AMES SALMONELLA TYPHIMURIUM, Strain/Indicator: TA1537, Metabolic Activation: RAT, LIVER, S-9, AROCLOR 1254 (30%), Method: PREINCUBATION",inactive; negative
same,mutagenic call,"Test System: AMES SALMONELLA TYPHIMURIUM, Strain/Indicator: TA1537, Metabolic Activation: RAT, LIVER, S-9, AROCLOR 1254, Method: STANDARD PLATE",inactive; negative
CCCCc1ccc(N=Cc2ccc(OC)cc2)cc1,mutagenic call,[1],inactive; negative
same,mutagenic call,[3],active; positive
same,mutagenic call,[4],inactive; negative
same,mutagenic call,[6],inactive; negative
Nc1ccc(-c2ccc(N)c(F)c2)cc1F,mutagenic call,"Test System: AMES SALMONELLA TYPHIMURIUM, Strain/Indicator: TA98(1,8-DNP6), Metabolic Activation: HAMSTER, LIVER, S-9, Method: PREINCUBATION",active; positive
same,mutagenic call,"Test System: AMES SALMONELLA TYPHIMURIUM, Strain/Indicator: TA98(1,8-DNP6), Metabolic Activation: NONE, Method: PREINCUBATION",active; positive
same,mutagenic call,"Test System: AMES SALMONELLA TYPHIMURIUM, Strain/Indicator: TA98(1,8-DNP6), Metabolic Activation: NONE, Method: STANDARD PLATE",active; positive
same,mutagenic call,"Test System: AMES SALMONELLA TYPHIMURIUM, Strain/Indicator: TA98(1,8-DNP6), Metabolic Activation: S-9, Method: STANDARD PLATE",active; positive
same,mutagenic call,"Test System: AMES SALMONELLA TYPHIMURIUM, Strain/Indicator: TA98, Metabolic Activation: HAMSTER, LIVER, S-9, Method: PREINCUBATION",active; positive
same,mutagenic call,[1],active; positive
same,mutagenic call,[2],active; positive
same,mutagenic call,"Test System: AMES SALMONELLA TYPHIMURIUM, Strain/Indicator: TA98, Metabolic Activation: S-9, Method: STANDARD PLATE",active; positive
same,mutagenic call,[5],inactive; negative
same,mutagenic call,"Test System: AMES SALMONELLA TYPHIMURIUM, Strain/Indicator: TA100, Metabolic Activation: S-9, Method: STANDARD PLATE",active; positive
Cc1ccc(N(N)c2ccc(C)cc2)cc1,mutagenic call,[5],inactive; negative
same,mutagenic call,[7],active; positive
same,mutagenic call,"Test System: AMES SALMONELLA TYPHIMURIUM, Strain/Indicator: TA102, Metabolic Activation: NONE, Method: STANDARD PLATE",active; positive
same,mutagenic call,"Test System: AMES SALMONELLA TYPHIMURIUM, Strain/Indicator: TA102, Metabolic Activation: RAT, LIVER, S-9, AROCLOR 1254, Method: STANDARD PLATE",active; positive
Nc1ccc(O)c(C(=O)O)c1,mutagenic call,[1],inactive; negative
same,mutagenic call,"Test System: AMES SALMONELLA TYPHIMURIUM, Strain/Indicator: TA98, Metabolic Activation: S-9, Method: PREINCUBATION",inactive; negative
same,mutagenic call,[4],inactive; negative
same,mutagenic call,"Test System: AMES SALMONELLA TYPHIMURIUM, Strain/Indicator: TA100, Metabolic Activation: S-9, Method: PREINCUBATION",inactive; negative
same,mutagenic call,[8],inactive; negative
same,mutagenic call,"Test System: AMES SALMONELLA TYPHIMURIUM, Strain/Indicator: TA1535, Metabolic Activation: S-9, Method: PREINCUBATION",inactive; negative
same,mutagenic call,[9],inactive; negative
same,mutagenic call,"Test System: AMES SALMONELLA TYPHIMURIUM, Strain/Indicator: TA1537, Metabolic Activation: S-9, Method: PREINCUBATION",inactive; negative
same,mutagenic call,"Test System: E. COLI, Strain/Indicator: WP2 UVRA, Metabolic Activation: NONE, Method: PREINCUBATION",inactive; negative
same,mutagenic call,"Test System: E. COLI, Strain/Indicator: WP2 UVRA, Metabolic Activation: S-9, Method: PREINCUBATION",inactive; negative
